Assay results as given in patent US20250049025A1, “SURFACTANTS FOR USE IN AGRICULTURAL FORMULATIONS” (AdvanSix Resins & Chemicals LLC, priority 2023, published 2025).
Where two headings read alike, the source gives them in different places.

How the values were obtained:
S. mutans (25715) = assay: Minimum inhibitory concentration (MIC) test, serial dilution; format: cell-based, Streptococcus mutans
Description: (§1) Surfactants of the present disclosure have been shown in a standard protocol to assess antimicrobial activities called minimum inhibitory concentration (MIC) tests.
(§2) The antimicrobial properties of surfactants were examined using known methods and standard protocols, and various types of microorganisms as treatment targets. More specifically a minimum inhibitory concentration (MIC) test protocol was applied, using serial dilution method, giving concentration-dependent microorganism growth inhibition measurements against gram positive (e.g., Streptococcus mutans, which is anaerobic, and Staphylococcus aureus, which is usually aerobic but can grow also anaerobically), gram negative (e.g., Escherichia coli, which is anaerobic, or Pseudomonas aeruginosa, which is aerobic).
(§3) Bacteria were propagated overnight in a suitable growth medium, which was a Tryptic Soy Broth. Prior to testing, the concentrations of the test organisms were established using a spectrophotometer that can measure optical density. Those bacterial samples were then diluted to about 1E3 to 1E4 CFU/mL. Thereafter, […] of the bacterial cultures thus prepared were inoculated into test wells of a 96-well plate, each containing suitable growth media, which was Tryptic Soy Agar, and once the bacterial cultures were inoculated, these wells were then treated with the test specimen, serially diluted, incubated at a temperature of 37+/−1° C. and relative humidity of not less than 90% for about 24+/−1 hour.
(§4) Test surfactants were prepared into dilution series. All dilutions were conducted serially using a multichannel pipetter into 96-well microtiter plates.
(§5) The MIC was then used to determine the approximate concentration of the test surfactant at which there was inhibition of bacterial growth. […]
(§6) Test measurements were made on replicate 96-well plates, and reported as the rounded whole number average of the determined MIC. […] Measurement variability was then reported based on the determined average in the form of MIC+/−.

P. aeruginosa (9027) = assay: as above; format: cell-based, Pseudomonas aeruginosa; conditions: 24 hours, serial dilution 1.7 fold, 400 ppm max
Description: as §1, §2
(§7) Bacteria were propagated overnight in a suitable growth medium, which was a Tryptic Soy Broth. Prior to testing, the concentrations of the test organisms were established using a spectrophotometer that can measure optical density. Those bacterial samples were then diluted to about 1E3 to 1E4 CFU/mL. […]
as §6

S. aureus (6538) = assay: as above; format: cell-based, Staphylococcus aureus
Description: as §1, §2, §3, §4, §5, §6

E. coli (8739) = assay: as above; format: cell-based, Escherichia coli; conditions: 24 hours, serial dilution 1.7 fold
Description: as §1, §2, §7, §6

[1] = Critical micelle concentration and minimum surface tension from surface tension versus concentration in water (Wilhelmy plate method); format: physicochemical; conditions: for critical micelle concentration (CMC) / plateau value of minimum surface tension: in water; for interfacial activity / surfactant properties (in words): judged from CMC and minimum surface tension
Description: These properties may be measured and described by various methods. One method by which surfactants may be described is by the molecule's critical micelle concentration (CMC). CMC may be defined as the concentration of a surfactant at which micelles form, and above which all additional surfactant is incorporated into micelles.
As surfactant concentration increases, surface tension decreases. Once the surface is completely overlaid with surfactant molecules, micelles begin to form. This point represents the CMC, as well as the minimum surface tension. Further addition of surfactant will not further affect the surface tension. CMC may therefore be measured by observing the change in surface tension as a function of surfactant concentration. One such method for measuring this value is the Wilhemy plate method. A Wilhelmy plate is usually a thin iridium-platinum plate attached to a balance by a wire and placed perpendicularly to the air-liquid interface. The balance is used to measure the force exerted on the plate by wetting. This value is then used to calculate the surface tension (γ) according to Equation 1: […]
wherein I is equal to the wetted perimeter (2w+2d, in which w and d are the plate thickness and width, respectively) and cos θ, the contact angle between the liquid and the plate, is assumed to be 0 in the absence of an extant literature value.
Nuclear magnetic resonance (NMR) spectroscopy was performed on a Bruker 500 MHz spectrometer. The critical micelle concentration (CMC) was determined by the Wilhelmy plate method at 23° C. with a tensiometer (DCAT 11, DataPhysics Instruments GmbH) equipped with a Pt—Ir plate. Dynamic surface tension was determined with a bubble pressure tensiometer (Krüss BP100, Krüss GmbH), at 23° C. Contact angle was determined with the optical contact angle goniometer (OCA 15 Pro, DataPhysics GmbH) equipped with a digital camera.

[2] = 24 hours, serial dilution 1.7 fold, 20 ppm max

Compound | critical micelle concentration (CMC) ([1]; 23° C.) | plateau value of minimum surface tension ([1]; 23° C.) | interfacial activity / surfactant properties (in words) [1] | other results
CCCCCCCCCCCCCC[N+](C)(C)Cc1ccccc1.[Cl-] [ADBAC, reference compound] | – | – | – | MIC (S. mutans (25715); [2]): 7 +/− 3 ppm; MIC (P. aeruginosa (9027)): 48 +/− 20 ppm; MIC (S. aureus (6538); [2]): 7 +/− 3 ppm; MIC (E. coli (8739); 20 ppm max): 16 +/− 7 ppm
C[N+](C)(CCCCCC(=O)NCCC[Si](O[Si](C)(C)C)(O[Si](C)(C)C)O[Si](C)(C)C)CC(=O)O [Comparative Surfactant, N-(carboxymethyl)-6-((3-(1,1,1,5,5,5-hexamethyl-3-((trimethylsilyl)oxy)trisiloxan-3-yl)propyl)amino)-N,N-dimethyl-6-oxohexan-1-aminium bromide, reference compound] | about 17.28 mmol | about 29.16 mN/m | inferior surfactant properties | –
C[N+](C)(CCCCCC(=O)NCCC[Si](O[Si](C)(C)C)(O[Si](C)(C)C)O[Si](C)(C)C)Cc1ccccc1 [Surfactant 1, N-benzyl-6-((3-(1,1,1,5,5,5-hexamethyl-3-((trimethylsilyl)oxy)trisiloxan-3-yl)propyl)amino)-N,N-dimethyl-6-oxohexan-1-aminium bromide] | – | around 20.67 mN/m | outstanding interfacial activity | critical micelle concentration (CMC) ([1]; pH 8, 23° C.): about 9.883 mmol
CCOC(=O)C[N+](C)(C)CCCCCC(=O)NCCC[Si](O[Si](C)(C)C)(O[Si](C)(C)C)O[Si](C)(C)C [Surfactant 2, N-(2-ethoxy-2-oxoethyl)-6-((3-(1,1,1,5,5,5-hexamethyl-3-((trimethylsilyl)oxy)trisiloxan-3-yl)propyl)amino)-N,N-dimethyl-6-oxohexan-1-aminium bromide] | about 0.2171 mmol | around 20.36 mN/m | outstanding interfacial activity | –
C=CC[N+](C)(C)CCCCCC(=O)NCCC[Si](O[Si](C)(C)C)(O[Si](C)(C)C)O[Si](C)(C)C [Surfactant 3, N-allyl-6-((3-(1,1,1,5,5,5-hexamethyl-3-((trimethylsilyl)oxy)trisiloxan-3-yl)propyl)amino)-N,N-dimethyl-6-oxohexan-1-aminium iodide] | about 1.3599 mmol | about 20.67 mN/m | outstanding interfacial activity | –
C#CC[N+](C)(C)CCCCCC(=O)NCCC[Si](O[Si](C)(C)C)(O[Si](C)(C)C)O[Si](C)(C)C [Surfactant 4, 6-((3-(1,1,1,5,5,5-hexamethyl-3-((trimethylsilyl)oxy)trisiloxan-3-yl)propyl)amino)-N,N-dimethyl-6-oxo-N-(prop-2-yn-1-yl)hexan-1-aminium bromide] | about 0.2419 mmol | about 20.54 mN/m | outstanding interfacial activity | –
COCCOCC[N+](C)(C)CCCCCC(=O)NCCC[Si](O[Si](C)(C)C)(O[Si](C)(C)C)O[Si](C)(C)C [Surfactant 5, 6-((3-(1,1,1,5,5,5-hexamethyl-3-((trimethylsilyl)oxy)trisiloxan-3-yl)propyl)amino)-N-(2-(2-methoxyethoxy)ethyl)-N,N-dimethyl-6-oxohexan-1-aminium bromide] | about 0.4622 mmol | about 20.40 mN/m | outstanding interfacial activity | –
CCOP(=O)(CCC[N+](C)(C)CCCCCC(=O)NCCC[Si](O[Si](C)(C)C)(O[Si](C)(C)C)O[Si](C)(C)C)OCC [Surfactant 6, N-(3-(diethoxyphosphoryl)propyl)-6-((3-(1,1,1,5,5,5-hexamethyl-3-((trimethylsilyl)oxy)trisiloxan-3-yl)propyl)amino)-N,N-dimethyl-6-oxohexan-1-aminium bromide] | about 0.3989 mmol | about 20.48 mN/m | outstanding interfacial activity | MIC (S. mutans (25715); Streptococcus mutans, 24 h): 81 µg/mL; MIC (S. aureus (6538); Staphylococcus aureus, 24 h): 138 µg/mL
C[N+](C)(CCCO)CCCCCC(=O)NCCC[Si](O[Si](C)(C)C)(O[Si](C)(C)C)O[Si](C)(C)C [Surfactant 7, 6-((3-(1,1,1,5,5,5-hexamethyl-3-((trimethylsilyl)oxy)trisiloxan-3-yl)propyl)amino)-N-(3-hydroxypropyl)-N,N-dimethyl-6-oxohexan-1-aminium iodide] | about 0.4568 mmol | about 20.61 mN/m | outstanding interfacial activity | MIC (P. aeruginosa (9027); Pseudomonas aeruginosa, read-out: MIC): 81 µg/mL; MIC (E. coli (8739); Escherichia coli, 400 ppm max, read-out: MIC): 81 µg/mL
C[N+](C)(CCO)CCCCCC(=O)NCCC[Si](O[Si](C)(C)C)(O[Si](C)(C)C)O[Si](C)(C)C [Surfactant 8, 6-((3-(1,1,1,5,5,5-hexamethyl-3-((trimethylsilyl)oxy)trisiloxan-3-yl)propyl)amino)-N-(2-hydroxyethyl)-N,N-dimethyl-6-oxohexan-1-aminium iodide] | about 0.9986 mmol | about 20.41 mN/m | outstanding interfacial activity | –
C[N+](C)(CCCCCC(=O)O)CCCCCC(=O)NCCC[Si](O[Si](C)(C)C)(O[Si](C)(C)C)O[Si](C)(C)C [Surfactant 9, N-(5-carboxypentyl)-6-((3-(1,1,1,5,5,5-hexamethyl-3-((trimethylsilyl)oxy)trisiloxan-3-yl)propyl)amino)-N,N-dimethyl-6-oxohexan-1-aminium bromide] | about 0.2237 mmol | about 20.52 mN/m | excellent interfacial activity | MIC (S. mutans (25715); Streptococcus mutans, 24 hours, serial dilution 1.7 fold, 400 ppm max, read-out: MIC): 81 µg/mL; MIC (S. aureus (6538); Staphylococcus aureus, 24 hours, serial dilution 1.7 fold, 400 ppm max, read-out: MIC): 138 µg/mL
C[N+](C)(CCCCCC(=O)NCCC[Si](O[Si](C)(C)C)(O[Si](C)(C)C)O[Si](C)(C)C)CCC[N+](C)(C)CCCCCC(=O)NCCC[Si](O[Si](C)(C)C)(O[Si](C)(C)C)O[Si](C)(C)C [Surfactant 10, N^1,N^3-bis(6-((3-(1,1,1,5,5,5-hexamethyl-3-((trimethylsilyl)oxy)trisiloxan-3-yl)propyl)amino)-6-oxohexyl)-N^1,N^1,N^3,N^3-tetramethylpropane-1,3-diaminium dibromide] | about 0.0631 mmol | about 22.12 mN/m | has interfacial activity | –
